Source: patent US9532984B2, “Therapeutic combination for cancer treatment” (The Translational Genomics Research Institute, priority 2011, dated 2017)

Columns and labels:
SW48 KRas Kras WT cells = assay: Cancer cell growth inhibition (cell proliferation), SW48 Kras WT; format: cell-based; conditions: Homo sapiens
Procedure: (§1) The experiments involved a broad testing of multiple concentrations of metformin, phenformin and pioglitazone against fixed concentrations of the autophagy inhibitors. […] Similar tests were carried out in mouse models.

[1] = system: SW48 KRas Kras G12V cells; assay: Cancer cell growth inhibition (cell proliferation), SW48 Kras G12V; format: cell-based; conditions: Homo sapiens
Procedure: as §1

[2] = system: SW48 KRas Kras G12D cells; assay: Cancer cell growth inhibition (cell proliferation), SW48 Kras G12D; format: cell-based; conditions: Homo sapiens
Procedure: as §1

[3] = system: BxPC-3 human pancreatic tumor xenograft
Procedure: BxPC-3 is a human pancreatic cancer cells obtained from the American Type Culture Collection and maintained as recommended. Female mice were inoculated subcutaneously in the right flank with 0.1 ml of a 50% RPMI/50% Matrigel™ (BD Biosciences, Bedford, Mass.) mixture containing a suspension of BxPC-3 human pancreatic tumor cells (approximately 5×10^6 cells/mouse). RPMI, a bicarbonate buffering system, and Matrigel™, a gelatinous protein mixture, support growth of many types of cultured cells including human normal and neoplastic leukocytes.
When tumors reached approximately 135 mg, mice were randomized into treatment groups. Body weights were recorded when the mice were randomized into groups and were weighted twice per week (on Study Days 3 and 7 for each cycle) thereafter in conjunction with tumor measurements. Group 1 mice were treated with vehicle control containing 5% DMA, 10% propylene glycol, 20% PEG 400, and 65% sterile water. Group 2 mice were treated with metformin only. Group 3 mice were treated with autophagy inhibitor in combination with metformin. Treatment began on the day of randomization. Metformin was delivered orally ad libitum in water. The autophagy inhibitor was delivered daily for 12 days in a vehicle of 5% DMA, 10% propylene glycol, 20% PEG 400, and 65% sterile water.

| Structure (SMILES) | IC50 (SW48 KRas Kras WT cells; no autophagy inhibitor) | IC50 (SW48 KRas Kras WT cells; with fixed Mefloquine 3 μM) | IC50 ([1]; no autophagy inhibitor) | IC50 ([1]; with fixed Mefloquine 3 μM) | IC50 ([2]; no autophagy inhibitor) | IC50 ([2]; with fixed Mefloquine 3 μM) | IC50 (SW48 KRas Kras WT cells; with fixed Mefloquine 1 μM) | IC50 (SW48 KRas Kras WT cells; with fixed Quinicrine 1 μM) | IC50 (SW48 KRas Kras WT cells; with fixed Quinicrine 3 μM) | IC50 ([1]; with fixed Mefloquine 1 μM) | IC50 ([1]; with fixed Quinicrine 1 μM) | IC50 ([1]; with fixed Quinicrine 3 μM) | IC50 ([2]; with fixed Mefloquine 1 μM) | IC50 ([2]; with fixed Quinicrine 1 μM) | IC50 ([2]; with fixed Quinicrine 3 μM) | other results |
| --- | --- | --- | --- | --- | --- | --- | --- | --- | --- | --- | --- | --- | --- | --- | --- | --- |
| CCc1ccc(CCOc2ccc(CC3SC(=O)NC3=O)cc2)nc1 (stereo not drawn) [Pioglitizone, pioglitazone] | 154 µM | 8.1 µM | > 250 µM | 0.4 µM | 183 µM | 9.7 µM | – | – | – | – | – | – | – | – | – | – |
| CN(C)C(=N)N=C(N)N [Metformin, metformin] | 1000 µM | 600 µM | 430 µM | 40 µM | 1300 µM | 900 µM | < 20 µM | 1100 µM | 4800 µM | < 20 µM | < 20 µM | 500 µM | < 20 µM | 1100 µM | > 10000 µM | IC50 (SW48 KRas Kras WT cells; with fixed Primaquine 1 μM): 100 µM; IC50 (SW48 KRas Kras WT cells; with fixed Primaquine 3 μM): 2600 µM; IC50 ([1]; with fixed Primaquine 1 μM): 80 µM; IC50 ([1]; with fixed Primaquine 3 μM): 320 µM; IC50 ([2]; with fixed Primaquine 1 μM): 100 µM; IC50 ([2]; with fixed Primaquine 3 μM): > 10000 µM; tumor growth ([3]; after day 18, FIG. 1): continued although at a lower rate than that in Group 1 control; tumor growth rate ([3]; day 8 to about day 18, compared among groups, FIG. 1): lowest tumor growth rate; tumor size regressed ([3]; within about one week, after day 18): ~20 % by weight |
| [H]/N=C(/N)N/C(=N/[H])NCCc1ccccc1 [Phenformin, phenformin] | 7.2 µM | – | 16.2 µM | – | 10.7 µM | – | 17.2 µM | 11 µM | 15.8 µM | 1.8 µM | 6.5 µM | 4.3 µM | 13 µM | 23.4 µM | 33.1 µM | IC50 (SW48 KRas Kras WT cells; with fixed Chloroquine 1 μM): 23.4 µM; IC50 (SW48 KRas Kras WT cells; with fixed Chloroquine 3 μM): 11.7 µM; IC50 ([1]; with fixed Chloroquine 1 μM): 5.8 µM; IC50 ([1]; with fixed Chloroquine 3 μM): 4.5 µM; IC50 ([2]; with fixed Chloroquine 1 μM): 19.5 µM; IC50 ([2]; with fixed Chloroquine 3 μM): 16.2 µM |
